Data published in patent US20260053942A1, “STING AGONIST IMMUNOSTIMULATORY ANTIBODY DRUG CONJUGATES” (ASTELLAS PHARAMA INC., priority 2024, published 2026).

How the values were obtained:
[1] = system: NCI-H460 cells and human PBMCs; experiment: NCI-H460/PBMC co-culture (TROP2 negative): cytokine (IP-10) release; type: cell-based; design: key: NC = Not Calculable due to incomplete curve
Protocol: (§1) For the co-culture assay, cancer cells were plated on transparent flat bottom polystyrene plates and allowed to attach overnight. The next day, serially diluted (1:4) test articles were formulated at 3× starting concentration in complete RPMI media and added onto each well. Human PBMCs were thawed and resuspended in RPMI supplemented with 10% heat-inactivated fetal bovine serum from Hyclone, 1% Penicillin/Streptomycin and 2 mM/L-glutamax. PBMCs were then added into the same well at a final ratio of PBMCs:cancer cells=30:1. Plates were incubated for 2 or 3 days at 37° C. with 5% CO2 in a cell culture incubator.
(§2) To measure the cytokine released in this assay, customized MSD V-plex plates were ordered to measure human IL6, IP-10, TNFα, IFNγ, IL-1α, MCP-1, MIP1α. The supernatant was thawed and diluted 1:50 using dilution buffer provided by the vendor before being added into the MSD plates. Cytokine measurement in the cell culture supernatant was carried out using protocols provided by the vendor. Raw data generated by the Meso Scale Discovery (MSD®) SQ120 plate reader were imported into MSD Discovery Workbench software. Unknown sample values were interpolated from standard curves by the software and imported into GraphPad Prism. Each cytokine level was fitted with non-linear regression analysis, using log(agonist) vs. response, variable slope, 4-parameter fit equation in GraphPad Prism. […]

[2] = system: TROP2 positive NCI-H292, NCI-H441 cells and TROP2 negative NCI-H460 and NCI-H1703 cells; experiment: Cell proliferation (cell killing) assay, cell line panel; type: cell-based, human; conditions: all TROP2 positive and negative cell lines tested
Protocol: (§3) The cytotoxicity of the ADCs, iSACs and iADCs was measured in a cell proliferation assay. TROP2 positive NCI-H292, NCI-H441 cells and TROP2 negative NCI-H460 and NCI-H1703 cells were obtained from ATCC (American Type Culture Collection) and maintained in DMEM/F12 (1:1), high glucose (Corning) supplemented with 10% heat-inactivated fetal bovine serum (Thermo Scientific), 2 mM glutamax (Thermo Scientific), and 1× Penicillin/Streptomycin (Corning).
(§4) Cells were collected and counted by the Vi-CELL Cell Viability Analyzers (Beckman Coulter). A total of 7500 cells in a volume of 50 uL were seeded in each well of a 96-well flat bottom white Polystyrene plate. Test articles were diluted at 2× final concentration in the cell culture medium and 50 uL was added into each treatment well. Assay plates were cultured at 37° C. in a CO2 incubator for 120 hours. For cell viability measurement, 60 μL of Cell Titer-Glo® reagent (Promega Corp. Madison, WI) was added into each well, and plates were processed as per product instructions. Relative luminescence was measured on an ENVISION® plate reader (Perkin-Elmer; Waltham, MA). Relative luminescence readings were converted to % viability using untreated cells as controls. Data was fitted with non-linear regression analysis, using log(inhibitor) vs. response-variable slope, 4 parameter fit equation using GraphPad Prism (GraphPad v 5.00, Software; San Diego, CA).

human PBMCs = experiment: NCI-H292/PBMC co-culture: monocyte/immune cell count and activation (FACS); type: cell-based; conditions: TROP2 positive NCI-H292/PBMC co-culture
Protocol: (§5) The ability of different TROP2 iADCs to induce cancer cell killing, immune activation, and cytokine release was evaluated in an in vitro co-culture assay with human cancer cells and human PBMCs.
(§6) Residual RBCs were removed using ACK lysis buffer (Gibco) for 10 minutes, followed by DPBS wash. Isolated PBMCs were counted, resuspended in freezing medium (Sigma) and stored in a freezing vessel at −80° C. for 24 hours before being transferred to vapor-phase liquid nitrogen for long-term storage.
(§7) For the co-culture assay, cancer cells were plated on transparent flat bottom polystyrene plates and allowed to attach overnight. The next day, serially diluted (1:4) test articles were formulated at 3× starting concentration in complete RPMI media and added onto each well. […]
(§8) On the day of sample collection, cell culture supernatants were collected and stored at −80° C. until cytokine release analyses were performed. […] Cells were then washed with FACS buffer again and read on Cytek flow cytometer. […]
(§9) The ability of different TROP2 iADCs to induce cancer cell killing, immune activation, and cytokine release was evaluated in an in vitro co-culture assay with TROP2 positive CaoV3 cells or NCI-H292 cells and human PBMCs. h1925-C06, an anti-TROP2 antibody, was conjugated to LP-C1 on the heavy chain Y180/F404 sites and to different STING agonist linker payloads at light chain K42 sites. […]

NCI-H441 cells = experiment: NCI-H441/PBMC co-culture (title of Table 16): tumor cell killing; type: cell-based, human
Protocol: as §5, §6, §1, §8

NCI-H460 (Trop2-) = experiment: Cell proliferation (cell killing) assay, Cell Titer-Glo, 120 hours; type: cell-based, human; conditions: for EC50: Homo sapiens
Protocol: as §3, §4

NCI-H292 (Trop2+) = experiment: as above; type: cell-based, human; conditions: for EC50: Homo sapiens
Protocol: as §3, §4

NCI-H441 (Trop2+) = experiment: as above; type: cell-based, human; conditions: for EC50: Homo sapiens
Protocol: as §3, §4

NCI-H1703 (Trop2-) = experiment: as above; type: cell-based, human; conditions: for EC50: Homo sapiens
Protocol: as §3, §4

[3] = system: NCI-H441 cells and human PBMCs; experiment: NCI-H441/PBMC co-culture (title of Table 16): cytokine (IP-10) release; type: cell-based; design: key: NC = Not Calculable due to incomplete curve
Protocol: as §1, §2

NCI-H292 cells [4] = experiment: Immunogenic cell death: cell surface calreticulin (CALR) on live cells (flow cytometry), 48 hours; type: cell-based, human; conditions: for induction of CALR on live cells compared to untreated cells: NCI-H292 cells
Protocol: (§10) Immunogenic cell death elicited by the TROP2 ADC, iSAC, iADCs and exatecan were measured by cell surface translocate of calreticulin and release of HMGB1 in the cell culture supernatant. Briefly, TROP2 positive cell line NCI-H292 were seeded into a 96-well flat bottom plate 4 hours prior to the initialization of the assay. Test articles were formulated at a 2× starting concentration in cell culture medium, and samples were serial diluted (1:3) under sterile conditions and added onto the cells in duplicates. After incubation at 37° C. in a CO2 incubator for 48 hours, the cell supernatant was collected for measuring HMGB1 and the adherent cells were collected for calreticulin expression on the cell surface.
NCI-H292 cells were detached using Accutase (Innovative Cell Technologies) and viability was accessed using a 1:500 dilution of Zombie NIR viability dye. […] Surface calreticulin measures on the live cells were gathered using an Attune NXT Flow Cytometer (ThermoFisher Scientific) to obtain median fluorescence intensity values. All data were fitted with non-linear regression analysis, using log(agonist) vs. response, variable slope, 4 parameter fit equation using GraphPad Prism.

NCI-H460 cells = experiment: NCI-H460/PBMC co-culture (TROP2 negative): tumor cell killing; type: cell-based, human
Protocol: as §5, §6, §1
On the day of sample collection, cell culture supernatants were collected and stored at −80° C. until cytokine release analyses were performed. All the cells in the well were combined (both suspension and adherent cells) and resuspended in 50 μL of PBS containing Live/Dead Fixable Violet Dead Cell Stain (Thermo Fisher) and 1× human Fc block (BD Biosciences) and incubated at 37° C. for 20 minutes. […] After incubation on ice for 1 hour, cells were washed with FACS buffer and fixed with 50 uL/well of 2% PFA (paraformaldehyde) for 20 minutes. Cells were then washed with FACS buffer again and read on Cytek flow cytometer. FACS data analysis was done by Flowjo software to identify monocytes, B cells, CD4+ T cells, CD8+ T cells, NK cells and Dendritic cells and their activation status. Data from Flowjo was exported and plotted using non-linear regression analysis, log(agonist/inhibitor) vs. response, variable slope, 4-parameter fit equation in GraphPad Prism. […]

NCI-H292 cells [5] = experiment: IP-10 and IL-6 release from TROP2 positive NCI-H292 cells, 120 hours (MSD); type: cell-based, human; conditions: for EC50: Homo sapiens
Protocol: The cell supernatant was collected and IP-10 and IL-6 released in the cell culture medium was measured using Streptavidin single spot 96 well plates, compatible human antibody pairs, and calibrating solutions commercially available from MesoScale Discovery. Raw data generated by the Meso Scale Discovery (MSD®) SQ120 plate reader was imported into MSD Discovery Workbench software. Unknown sample values were interpolated from standard curves by the software and imported into Graphpad Prism. Each cytokine level was fitted with non-linear regression analysis, using log(agonist) vs. response, variable slope, 4-parameter fit equation in GraphPad Prism.

NCI-H292 cells [6] = experiment: Immunogenic cell death: HMGB1 release in supernatant (sandwich ELISA), 48 hours; type: cell-based, human
Protocol: as §10
HMGB1 released in the supernatant was assessed via sandwich ELISA using mouse anti-human HMGB1 clone 2F6 (Sigma-Aldrich) as the capture, polyclonal rabbit anti-human HMGB1 (Abcam) as secondary, and polyclonal goat anti-rabbit IgG HRP as the detection antibody. The HMGB1 concentrations in the cell culture medium were calculated based a standard curve built on commercially available recombinant human HMGB1 (R&D Systems).

NCI-H292 cells [7] = experiment: NCI-H292/PBMC co-culture: tumor cell killing (NCI-H292 cell count); type: cell-based, human; conditions: TROP2 positive NCI-H292/PBMC co-culture
Protocol: as §5, §6, §7, §8, §9

[8] = TROP2 positive NCI-H292 cells, read-out: IL-6 Release EC50
[9] = TROP2 positive NCI-H292 cells, read-out: IP-10 Release EC50
[10] = NCI-H292 cells, read-out: IL-6 induction EC50
[11] = NCI-H292 cells, read-out: IP-10 induction EC50

Compound	cell killing (in words) [2]	Span cell killing (NCI-H460 (Trop2-)) [%]	EC50 (NCI-H460 (Trop2-)) [nM]	Span cell killing (NCI-H292 (Trop2+)) [%]	EC50 (NCI-H292 (Trop2+)) [nM]	Span cell killing (NCI-H441 (Trop2+)) [%]	EC50 (NCI-H441 (Trop2+)) [nM]	Span cell killing (NCI-H1703 (Trop2-)) [%]	EC50 (NCI-H1703 (Trop2-)) [nM]	induction of CALR on live cells compared to untreated cells (NCI-H292 cells [4])	EC50 (NCI-H292 cells [5]; [8]) [nM]	EC50 (NCI-H292 cells [5]; [9]) [nM]	IL-6 Release Span (NCI-H292 cells [5]; TROP2 positive NCI-H292 cells) [pg/mL]	IP-10 Release Span (NCI-H292 cells [5]; TROP2 positive NCI-H292 cells) [pg/mL]	release of HMGB1 into the cell culture supernatant (NCI-H292 cells [6]) [ng/mL]	HMGB-1 Release Span (NCI-H292 cells [6]; supernatant) [ng/mL]	EC50 (NCI-H292 cells [5]; [10]) [nM]	EC50 (NCI-H292 cells [5]; [11]) [nM]	other results
CC[C@@]1(O)C(=O)OCc2c1cc1n(c2=O)Cc2c-1nc1cc(F)c(C)c3c1c2[C@@H](N)CC3 [Exatecan, exatecan, reference compound]	good cell killing	83	0.97	80	0.88	89	0.57	95	1.04	~2 fold	14.7	0.87	1410	203	~70	55	–	–	IP-10 Release Span [1]: NC; immune cell activation and cytokine release (in words) (human PBMCs): did not induce activation of any immune populations; IC50 (NCI-H441 cells; Homo sapiens, tumor cell killing, read-out: Cancer Cell Count IC50): 0.44 nM; Cancer Cell Count Span (NCI-H441 cells; Span = Top minus Bottom of dose response curve): 5,749 Cell Count; IP-10 Release Span [3]: NC; EC50 (NCI-H292 cells [4]; Homo sapiens, NCI-H292 live cells, cell surface): 0.19 nM; Calreticulin Span (NCI-H292 cells [4]; NCI-H292 live cells, cell surface): 783 MFI; IC50 (NCI-H460 cells; Homo sapiens, NCI-H460/PBMC co-culture, TROP2 negative, tumor cell killing, read-out: Cancer Cell Count IC50): 0.38 nM; Cancer Cell Count Span (NCI-H460 cells; NCI-H460/PBMC co-culture, TROP2 negative): 23,530 Cell Count; tumor cell killing (in words) (NCI-H460 cells; TROP2 negative NCI-H460/PBMC co-culture): potent tumor cell killing; induction of IP-10 and IL-6 release (in words) (NCI-H292 cells [5]; NCI-H292 cells): not; EC50 (NCI-H292 cells [6]; Homo sapiens, supernatant, read-out: HMGB-1 Release EC50): 2.08 nM; tumor cell killing (in words) (NCI-H292 cells [7]): potent tumor cell killing
CCn1nc(C)cc1C(=O)Nc1nc2cc(C(N)=O)cc(OC)c2n1C/C=C/Cn1c(NC(=O)c2cc(C)nn2CC)nc2cc(C(N)=O)cc(OCCCN3CCC(c4nnc5n4CCNC5)CC3)c21 [Compound S-3, 1-[(E)-4-[5-Carbamoyl-2-[(2-ethyl-5-methyl-pyrazole-3-carbonyl)amino]-7-[3-[4-(5,6,7,8-tetrahydro-[1,2,4]triazolo[4,3-a]pyrazin-3-yl)-1-piperidyl]propoxy]benzimidazol-1-yl]but-2-enyl]-2-[(2-ethyl-5-methyl-pyrazole-3-carbonyl)amino]-7-methoxy-benzimidazole-5-carboxamide]	did not result in significant cell killing	<15	> 100	<15	> 100	<15	> 100	<15	> 100	no induction of CALR	> 100	> 100	>8000	>4000	30	11	> 100	> 100	–
CCn1nc(C)cc1C(=O)Nc1nc2cc(C(N)=O)ccc2n1C/C=C/Cn1c(NC(=O)c2cc(C)nn2CC)nc2cc(C(N)=O)cc(OCCCN3CC4(CNCCO4)C3)c21 [Compound S-1]	did not result in significant cell killing	<15	> 100	<15	> 100	<15	> 100	<15	> 100	no induction of CALR	> 100	> 100	>10000	>4000	30	17	> 100	> 100	–
